Test results taken from patent US20130281409A1, “Myelin Sheath Fatty Acids that Resolve Neuroinflammation” (priority 2012, published 2013).
“Also recorded” adds a separate entry of the source.

Key:
[1] = tested on: EAE in PLP139-151-immunized SJL/J mice; assay: EAE, lipid or palmitic-acid treatment of established disease; type: in vivo, mouse
Protocol: Animal experiments were approved by, and performed in compliance with, the National Institute of Health guidelines of the Institutional Animal Care and Use Committee at Stanford University. For induction of EAE, 8- to 12-week-old female SJL/J mice (Jackson Laboratory) were immunized subcutaneously with 100 μg of PLP139-151 emulsified in CFA (Difco Laboratories). Lipid and palmitic-acid treatment: Administration of lipid, palmitic acid, or vehicle was initiated once the PLP139-151-immunized mice developed paralysis (representing clinical EAE) and repeated every other day, for a total of ten separate injections. 100 μg of POPS, PGPC, azPC ester, azPC, palmitic acid, or vehicle (0.05% Tween-20 in PBS) was administered in 0.2 ml intravenously in the tail. EAE treatment with lipid: 100 μg of PGPC or sphingomyelin or vehicle ([…] Tween-20 in PBS) was administered in 0.2 ml intravenously in the tail. Treatment with lipid or vehicle was initiated once the PLP139-151-immunized mice developed paralysis (representing clinical EAE) and repeated 3, 6, 12, and 18 days later, for a total of five separate injections.

RAW 264.7 cells = assay: Apoptosis of LPS-stimulated RAW 264.7 macrophage cells; type: cell-based, mouse; conditions: 30 μg/ml lipid, 100 ng/ml LPS, 48 hours
Protocol: LPS-stimulated RAW 264.7 mouse macrophage cells: 1×10^5 cells/ml of RAW 264.7 cells were stimulated with 100 ng/ml of lipopolysaccharide (LPS) in the presence of 30 μg/ml of POPS, PGPC, azPC ester, or azPC. Cells were stained according to standard protocols, run on a FACScan flow cytometer (BD Biosciences), and analysed with CellQuest software (BD Immunocytometry Systems) or with FlowJo software version 6.3.2 (Tree Star, Inc.).

[2] = tested on: NF-κB and ERK pathways, Bcl-2 family proteins; assay: Immunoblot of inflammatory, survival and apoptotic signaling in anti-CD3/anti-CD28-stimulated T cells; type: cell-based, mouse; conditions: 30 μg/ml lipid, 15 min or 24 h
Protocol: CD3^+ T cells were isolated from the lymph nodes of naïve C57BL/6 mice by using CD3^+ T-cell enrichment columns (R&D systems). […] Cells were washed with ice-cold PBS and lysed in RIPA lysis buffer containing 1X Halt protease and phosphatase inhibitor cocktail (Pierce) with a Dounce homogenizer. Immunoblotting was performed with antibodies against phospho-Bim ([…]), phospho-Bad ([…]), phospho-Bcl-2 ([…]), phospho-IKKα/β (serines 180/181), phospho-p65 ([…]), phospho-ERK1/2 […]), and IκBα from Cell Signaling Technology.

[3] = tested on: CD3+ T cells (gated on CD4+ T cells); assay: T-cell apoptosis, Annexin V and 7AAD staining; type: cell-based, mouse; conditions: 30 μg/ml lipid, anti-CD3 and anti-CD28, 48 hours
Protocol: FIG. 5. […] (C) TUNEL staining of brain and spinal-cord tissue from mice immunized with PLP139-151 peptide (to induce EAE) and treated for 12 h with azPC, POPS, or vehicle on day 15 after immunization. […] (D) Quantification of TUNEL-positive infiltrating cells in brain and spinal cord shown in panel (C). Cells were stained according to standard protocols, run on a FACScan flow cytometer (BD Biosciences), and analysed with CellQuest software (BD Immunocytometry Systems). The antibody conjugate used was FITC anti-CD4, clone GK1.5 (BD Pharmingen). 7AAD staining was performed by using the Annexin V-PE Apoptosis Detection Kit I (BD Pharmingen). Cells were stained according to standard protocols, run on a FACScan flow cytometer (BD Biosciences), and analysed with CellQuest software (BD Immunocytometry Systems) or with FlowJo software version 6.3.2 (Tree Star, Inc.).

B cells [4] = assay: Proliferation of anti-IgM F(ab')2/anti-CD40-stimulated purified B cells; type: cell-based, mouse; conditions: 30 μg/ml lipid, anti-IgM F(ab')2 and anti-CD40, 48 hours
Protocol: (§1) Anti-IgM F(ab′)2 fragment/anti-CD40-stimulated purified B cells: We harvested spleens from naive C57BL/6 mice and used a B-cell isolation kit (Miltenyi Biotec) to negatively isolate B cells. We then stimulated 5×10^5 cells/ml of B cells with 5 μg/ml of each of soluble anti-IgM F(ab′)2 fragment (Jackson ImmunoResearch) antibody and anti-CD40 antibody (eBioscience) in the presence of 30 μg/ml of POPS, PGPC, azPC ester, or azPC.

B cells [5] = assay: Apoptosis of anti-IgM F(ab')2/anti-CD40-stimulated purified B cells; type: cell-based, mouse; conditions: 30 μg/ml lipid, anti-IgM F(ab')2 and anti-CD40, 48 hours
Protocol: as §1
Cells were stained according to standard protocols, run on a FACScan flow cytometer (BD Biosciences), and analysed with CellQuest software (BD Immunocytometry Systems) or with FlowJo software version 6.3.2 (Tree Star, Inc.). The antibody conjugates used were FITC anti-CD4 (clone GK1.5, BD Pharmingen), FITC anti-mouse CD8 (clone 53-6.7, BD Pharmingen), FITC anti-mouse CD3 (clone 145-2C11, eBioscience), PE-anti-rat IgG2A isotype control (BD Pharmingen), and PE-anti-mouse CD69 (clone H1.2F3, eBioscience). 7AAD staining was performed by using the Annexin V-PE Apoptosis Detection Kit I (BD Pharmingen).

[6] = tested on: infiltrating cells in brain and spinal cord of mice with EAE; assay: TUNEL assay on brain and spinal cord of EAE mice; type: in vivo, mouse; conditions: 200 μg i.v. on day 15 after immunization
Protocol: Mice with EAE were treated intravenously with 200 μg of azPC, 200 μg of POPS, or vehicle (0.05% Tween-20 in PBS) on day 15 after immunization with CFA and PLP139-151 peptide. Mice were treated with lipids for 12, 24, or 48 hours and then sacrificed and perfused with 4% paraformaldehyde. Brains and spinal cords were embedded in paraffin and sectioned. TUNEL-positive cells were detected by using the In Situ Cell Death Kit, AP (Roche) according to the manufacturer's instructions.

[7] = 100 μg i.v. once paralysis developed, every other day, ten injections

Row | SMILES | EAE severity, established disease ([1]; 100 μg i.v. from disease onset (10 days after immunization), five injections) | EAE severity, established disease [1, 7] | apoptosis of LPS-activated RAW 264.7 cells (RAW 264.7 cells) | CD3/CD28-induced activation of the NF-κB and ERK pathways [2] | CD3/CD28-induced phosphorylation of Bim (serine 69) and Bad (serine 112) [2] | increase in T-cell apoptosis [3] | proliferation of activated B cells (B cells [4]) | apoptosis of activated B cells (B cells [5]) | number of TUNEL-positive cells with lymphocyte morphology in brain and spinal cord [6]
1 | CCCCCCCCCCCCCCCC(=O)OC[C@H](COP(=O)([O-])OCC[N+](C)(C)C)OC(=O)CCCC(=O)O [PGPC, 1-Palmitoyl-2-Glutaroyl-sn-Glycero-3-Phosphocholine] | attenuated EAE that was already established | ameliorate established EAE | induce apoptosis | suppressed the CD3/CD28-induced activation | suppressed the CD3/CD28-induced phosphorylation |  |  |  | 
2 | CCCCCCCC/C=C\CCCCCCCC(=O)O[C@H](COC(=O)CCCCCCCCCCCCCCC)COP(=O)(O)OC[C@H](N)C(=O)O [POPS, 1-Palmitoyl-2-Oleoyl-sn-Glycero-3-[Phospho-L-Serine]] |  | ameliorate established EAE | induce apoptosis | suppressed the CD3/CD28-induced activation | suppressed the CD3/CD28-induced phosphorylation | > 5 fold | modestly suppressed proliferation | increased apoptosis | increased the number of TUNEL-positive cells
3 | CCCCCCCCCCCCCCCC(=O)OC[C@H](COP(=O)([O-])OCC[N+](C)(C)C)OC(=O)CCCCCCCC(=O)O [azPC, 1-Palmitoyl-2-Azelaoyl-sn-Glycero-3-Phosphocholine] |  | ameliorate established EAE | increased apoptosis; also recorded: induce apoptosis | suppressed the CD3/CD28-induced activation | suppressed the CD3/CD28-induced phosphorylation | > 4 fold | modestly suppressed proliferation |  | increased the number of TUNEL-positive cells
